Data on 23 compounds can be found in patent publication US8796320B2, “1,3,4-Oxadiazole-2-carboxamide compound” (General Incorporated Association Pharma Valley Project …, priority 2009, dated 2014).

Where a name gives a salt, the structure may show the parent alone.

What all share (type): cell-based
Assay [1] has as its system STAT3. The experiment in a line: STAT3 transcription inhibition test (reporter gene method). To be noted: Homo sapiens; compound at 100 μM; STAT3 reporter HeLa stable cell line, oncostatin M 10 ng/mL, 4 hours; read-out: STAT3 transcription inhibitory activity (%). The protocol:
The inhibition of STAT3 transcription was evaluated by using STAT3 reporter HeLa stable cell line (Panomics Inc., catalog No. RC0003), a cell line for the reporter gene method, and performing the following method according to the appendix included therein.
STAT3, reporter HeLa stable cell line subcultured and maintained in a Dulbecco's modified Eagle's medium (DMEM) containing 10% fetal bovine serum, 100 units/mL penicillin, and 100 μg/mL streptomycin was inoculated at a concentration of 40000 cells/well to a 96-well plate (white) and attached to the plate by overnight incubation at 37° C. under 5% CO2. After addition of each evaluation compound adjusted to various concentrations (adjusted with a DMSO solution), the cells were precultured for 1 hour. Then, oncostatin M for activating STAT3 was added at a final concentration 10 ng/mL, and the cells were further cultured at 37° C. under 5% CO2 for 4 hours. Luciferase activity derived from the cells was determined using Steady-Glo Luciferase Assay System (Promega Corp.), and STAT3 transcriptional activity scores were calculated according to the following formula: STAT3 transcriptional activity score (%)=100×(Lchem−L0)/(LDMSO−L0) • L0: luminescence intensity obtained without stimulation with oncostatin M • Lchem: luminescence intensity obtained by the addition of a test sample • LDMSO: luminescence intensity obtained by the addition of only a solvent for dissolving a test sample
The test results were indicated in the rate of inhibition of STAT3 transcription by each compound at a concentration of 100 μM.
Background: A reporter such as luciferase makes a cellular process visible.

Assay [2] deals with Human lymphoma SCC-3 cells. The experiment in a line: SCC-3 cell growth inhibition test (MTT method). Conditions: 72-hour culture. The protocol:
Human lymphoma SCC-3 cells purchased from Japan Health Sciences Foundation were cultured for […] at a density of 5000 cells/well in a 96-well plate with RPMI1640 (Sigma-Aldrich Corp.) containing 10% fetal bovine serum (FBS; GIBCO) as a culture medium.
Simultaneously with cell inoculation, each test compound diluted to various concentrations with an RPMI medium was added to each well. After 72-hour culture, cell growth inhibitory activity was determined by the MTT method (J. Immunol. Methods, 1993, 65, 581-593) using a microplate reader (NJ-2300, BioTek Instruments, Inc.).
The test results were indicated in a concentration (IC50) at which 50% cell growth was inhibited.
In general terms: Formazan colour is commonly taken as a measure of viable cells.

Assay [3] deals with MDA-MB-468. Briefly: MDA-MB-468 cell growth inhibitory activity. Conditions: Homo sapiens; compound at 20 μM; MDA-MB-468, 72 hours. The protocol:
MDA-MB-468 diluted with phenol red-free DMEM/F-12 (GIBCO; 10% FBS, 20 units/ml penicillin/streptomycin) was inoculated at a concentration of 2000 cells/well to a 96-well plate (Greiner Bio-One) and cultured overnight at 37° C. in the presence of 5% CO2. Then, a test sample solution (containing 2 (v/v)% DMSO) adjusted to 10 μM was added thereto at a concentration of 10 μL/well and contacted with the cells at 37° C. for 72 hours in the presence of 5% CO2. Each well was washed three times with a medium. Then, after addition of 100 μL/well of a medium and 20 μL/well of CellTiter 96 AQueous, One Solution Reagent (Promega Corp.), the cells were incubated at 37° C. for 2 hours in the presence of 5% CO2. Absorbance at 495 nm was measured using Multiplate reader (Molecular Devices, Inc.), and the rate of inhibition of cell growth was calculated according to the following formula: Rate of inhibition of cell growth (%)=100−100×(Abschem−bkgd)/(AbsDMSO−bkgd) • Abschem: absorbance obtained by the addition of a test sample • AbsDMSO: absorbance obtained by the addition of only a solvent for test sample dissolution • bkgd: absorbance obtained by the addition of CellTiter 96 AQueous One Solution Reagent to a medium for cell culture
The test results were indicated in the rate of inhibition of cell growth by each compound at a concentration of 20 μM.

By IC50 is commonly meant the point on the concentration scale where inhibition reaches its midpoint. A lower IC50 goes with greater potency in that assay.

On to `O=C(Nc1nnc(-c2ccco2)o1)c1cccc(-c2ccc(Cl)cc2)c1` [Compound Ia-11, 4′-Chloro-N-[5-(2-furyl)-1,3,4-oxadiazol-2-yl]-3-biphenylcarboxamide], for which the inhibition at 100 µM in assay [1] was 67%. In assay [2], this compound registered an IC50 of 1800 nM.
`C=Cc1ccc(-c2cccc(C(=O)Nc3nnc(-c4ccco4)o3)c2)cc1` [Compound Ia-13, N-[5-(2-Furyl)-1,3,4-oxadiazol-2-yl]-4′-vinyl-3-biphenylcarboxamide]: in assay [1], the inhibition at 100 µM amounted to 67%. Also, inhibition in assay [2] was half-maximal at 1000 nM (IC50).
Regarding `O=Cc1ccc(-c2cccc(C(=O)Nc3nnc(-c4ccco4)o3)c2)cc1` [Compound Ia-17, 4′-Formyl-N-[5-(2-furyl)-1,3,4-oxadiazol-2-yl]-3-biphenylcarboxamide], in assay [1], the inhibition at 100 µM was > 100%. Further, the inhibition at 20 µM in assay [3] was found to be 54%. The compound also returned an IC50 in assay [2] of 4000 nM.
Regarding `CC(=O)c1ccc(-c2cccc(C(=O)Nc3nnc(-c4ccco4)o3)c2)cc1` [Compound Ia-18, 4′-Acetyl-N-[5-(2-furyl)-1,3,4-oxadiazol-2-yl]-3-biphenylcarboxamide], the inhibition at 100 µM in assay [1] was 71%. The compound also came in with an IC50 in assay [2] of 1900 nM.
On to `N#Cc1ccc(-c2cccc(C(=O)Nc3nnc(-c4ccco4)o3)c2)cc1` [Compound Ia-21, 4′-Cyano-N-[5-(2-furyl)-1,3,4-oxadiazol-2-yl]-3-biphenylcarboxamide], for which the inhibition at 100 µM in assay [1] worked out at 62%. Besides, the inhibition at 20 µM in assay [3] amounted to 91%. Also, in assay [2], it took 1700 nM to reach half-maximal inhibition (IC50).
On to `NS(=O)(=O)c1ccc(-c2cccc(C(=O)Nc3nnc(-c4ccco4)o3)c2)cc1` [Compound Ia-25, N-[5-(2-Furyl)-1,3,4-oxadiazol-2-yl]-4′-sulfamoyl-3-biphenylcarboxamide], for which, in assay [1], the inhibition at 100 µM came to 70%. In assay [2], this compound registered a half-maximal inhibitory concentration (IC50) of 53000 nM.
The matching figures for `Cn1ccc2ccc(-c3cccc(C(=O)Nc4nnc(-c5ccco5)o4)c3)cc21` [Compound Ia-43, N-[5-(2-Furyl)-1,3,4-oxadiazol-2-yl]-3-(1-methyl-6-indolyl)benzenecarboxamide]: 74% and 1800 nM.
As to `CN1CCc2cc(-c3cccc(C(=O)Nc4nnc(-c5ccco5)o4)c3)ccc21` [Compound Ia-44, N-[5-(2-Furyl)-1,3,4-oxadiazol-2-yl]-3-(1-methyl-5-indolinyl)benzenecarboxamide], the inhibition at 100 µM in assay [1] worked out at 58%. The compound further had a 50% inhibitory concentration (IC50) in assay [2] of 1800 nM.
Regarding `Cn1ccc2cc(-c3cccc(C(=O)Nc4nnc(-c5ccco5)o4)c3)ccc21` [Compound Ia-50, N-[5-(2-Furyl)-1,3,4-oxadiazol-2-yl]-3-(1-methyl-5-indolyl)benzenecarboxamide], in assay [1], the inhibition at 100 µM was > 100%. Further, the inhibition at 20 µM in assay [3] came to 51%. Besides, the midpoint of inhibition in assay [2], the IC50, lay at 1100 nM.
As to `O=C(Nc1nnc(-c2ccco2)o1)c1cccc(-c2ccc(-c3ccccc3)c(F)c2)c1` [Compound Ia-76, 3′-Fluoro-N-[5-(2-furyl)-1,3,4-oxadiazol-2-yl]-3-(p-terphenyl)carboxamide], in assay [1], the inhibition at 100 µM was 69%. In assay [3], the inhibition at 20 µM was found to be 72%. This compound also returned a half-maximal inhibitory concentration (IC50) in assay [2] of 200 nM.
`CCc1ccc(-c2ccc(-c3cccc(C(=O)Nc4nnc(-c5ccco5)o4)c3)cc2)cc1` [Compound Ia-78, 4″-Ethyl-N-[5-(2-Furyl)-1,3,4-oxadiazol-2-yl]-3-(p-terphenyl)carboxamide]: the inhibition at 100 µM in assay [1] came out at 70%. For the same compound, the inhibition at 20 µM in assay [3] amounted to 64%. In addition, in assay [2], the IC50 was < 100 nM.
For `O=C(Nc1nnc(-c2ccco2)o1)c1cccc(-c2ccc(-c3ccc4ccccc4c3)cc2)c1` [Compound Ia-83, N-[5-(2-Furyl)-1,3,4-oxadiazol-2-yl]-4′-(2-naphthyl)-3-biphenylcarboxamide] the same measures were 75%, 71% and < 100 nM.
Consider `O=C(Nc1nnc(-c2ccco2)o1)c1cccc(-c2ccc(C3CCCCC3)cc2)c1` [Compound Ia-84, 4′-Cyclohexyl-N-[5-(2-furyl)-1,3,4-oxadiazol-2-yl]-3-biphenylcarboxamide], for which, in assay [1], the inhibition at 100 µM stood at 74%. Besides, the inhibition at 20 µM in assay [3] turned out to be 68%. For the same compound, in assay [2], the IC50 is < 100 nM.
With `O=C(Nc1nnc(-c2ccco2)o1)c1cccc(-c2ccc(N3CCOCC3)cc2)c1` [Compound Ia-87, N-[5-(2-Furyl)-1,3,4-oxadiazol-2-yl]-4′-morpholino-3-biphenylcarboxamide formate], the inhibition at 100 µM in assay [1] came out at 92%. In assay [2], this compound gave an IC50 of 600 nM.
In the case of `O=C(Nc1nnc(-c2ccco2)o1)c1cccc(-c2cnc3ccccc3c2)c1` [Compound Ia-99, N-[5-(2-Furyl)-1,3,4-oxadiazol-2-yl]-3-(3-quinolyl)benzenecarboxamide], the inhibition at 100 µM in assay [1] came to 78%. Further, the inhibition at 20 µM in assay [3] was 55%.
`O=C(Nc1nnc(-c2ccco2)o1)c1cc(-c2cccc(Cl)c2)nc2nc(N3CCCCC3)sc12` [Compound Ib-2, 5-(3-Chlorophenyl)-N-[5-(2-furyl)-1,3,4-oxadiazol-2-yl]-2-piperidino-7-thiazolo[4,5-b]pyridinecarboxamide]: in assay [1], the inhibition at 100 µM was found to be 68%. In addition, in assay [3], the inhibition at 20 µM was > 100%.
For `Cc1ccc(-c2cc(C(=O)Nc3nnc(-c4ccco4)o3)c3sc(N4CCCCC4)nc3n2)cc1` [Compound Ib-3, N-[5-(2-Furyl)-1,3,4-oxadiazol-2-yl]-5-(4-methylphenyl)-2-piperidino-7-thiazolo[4,5-b]pyridinecarboxamide], in assay [1], the inhibition at 100 µM is > 100%. Besides, in assay [3], the inhibition at 20 µM is > 100%.
As to `O=C(Nc1nnc(-c2ccsc2)o1)c1cc(-c2ccccc2)nc2nc(N3CCCCC3)sc12` [Compound Ib-19, 5-Phenyl-2-piperidino-N-[5-(3-thienyl)-1,3,4-oxadiazol-2-yl]-7-thiazolo[4,5-b]pyridinecarboxamide], the inhibition at 100 µM in assay [1] amounted to 90%. For the same compound, in assay [3], the inhibition at 20 µM was 83%.
For `O=C(Nc1nnc(-c2ccco2)o1)c1cc(-c2cccs2)nc2nc(N3CCCC3)sc12` [Compound Ib-26, N-[5-(2-Furyl)-1,3,4-oxadiazol-2-yl]-2-(1-pyrrolidinyl)-5-(2-thienyl)-7-thiazolo[4,5-b]pyridinecarboxamide] the same measures were 60% and 76%.
For `O=C(Nc1nnc(-c2ccco2)o1)c1cc(-c2cccs2)nc2nc(N3CCCCC3)sc12` [Compound Ib-27, N-[5-(2-Furyl)-1,3,4-oxadiazol-2-yl]-2-piperidino-5-(2-thienyl)-7-thiazolo[4,5-b]pyridinecarboxamide] the same measures were 67% and 82%.
The matching figures for `O=C(Nc1nnc(-c2ccco2)o1)c1cc(-c2ccccc2)nc2nc(N3CCSCC3)sc12` [Compound Ib-30, N-[5-(2-Furyl)-1,3,4-oxadiazol-2-yl]-5-phenyl-2-(4-thiomorpholinyl)-7-thiazolo[4,5-b]pyridinecarboxamide]: > 100% and 84%.
Consider `O=C(Nc1nnc(-c2ccco2)o1)c1cc(-c2ccccc2)nc2nc(N3CCC(F)(F)CC3)sc12` [Compound Ib-32, 2-(4,4-Difluoropiperidino)-N-[5-(2-furyl)-1,3,4-oxadiazol-2-yl]-5-phenyl-7-thiazolo[4,5-b]pyridinecarboxamide], for which the inhibition at 100 µM in assay [1] came out at 80%. Also, in assay [3], the inhibition at 20 µM was found to be 86%.
As for `COc1cc([N+](=O)[O-])ccc1-c1ccc(C(=O)Nc2nnc(-c3ccco3)o2)o1` [Compound Ic-18, N-[5-(2-Furyl)-1,3,4-oxadiazol-2-yl]-5-(2-methoxy-4-nitrophenyl)-2-furancarboxamide], the inhibition at 20 µM in assay [3] came to 76%. The compound also came in with an IC50 in assay [2] of 16000 nM.
